Reference: the supplement of paper PMC11579375

Legend:
Assay in all cases: area under the viability dose-response curve (AUC) (AUC (arbitrary units, max 500 = no viability loss)); higher = less sensitive (higher viability)
Details in all cases: exposure time: 120 h; concentration range: 0.1 nM - 10 µM, 6 doses
27F1 = system: 27F1 (fetal-I hepatoblastoma organoid with intermediate liver markers)
Description: (§1)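 Patient-derived hepatoblastoma tumor organoids (about 50 organoids per well, 384-well plates, medium with 5% BME) were treated with the PMC pediatric cancer drug library. Each drug was tested in duplicate at 6 concentrations (0.1 nM to 10 µM, 10-fold steps).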

3E = system: 3E (embryonal-type hepatoblastoma organoid)
Description: as §1

13F2 = system: 13F2 (fetal-II hepatoblastoma organoid with high liver markers)
Description: as §1

17F1 = system: 17F1 (fetal-I hepatoblastoma organoid with intermediate liver markers)
Description: as §1

10F2 = system: 10F2 (fetal-II hepatoblastoma organoid with high liver markers)
Description: as §1

96F1 = system: 96F1 (fetal-I hepatoblastoma organoid with intermediate liver markers)
Description: as §1

135F2 = system: 135F2 (fetal-II hepatoblastoma organoid with high liver markers)
Description: as §1

8F1 = system: 8F1 (fetal-I hepatoblastoma organoid with intermediate liver markers)
Description: as §1

13E = system: 13E (embryonal-type hepatoblastoma organoid)
Description: as §1

22E = system: 22E (embryonal-type hepatoblastoma organoid)
Description: as §1

17E = system: 17E (embryonal-type hepatoblastoma organoid)
Description: as §1

SMILES	area under the viability dose-response curve (27F1)	area under the viability dose-response curve (3E)	area under the viability dose-response curve (13F2)	area under the viability dose-response curve (17F1)	area under the viability dose-response curve (10F2)	area under the viability dose-response curve (96F1)	area under the viability dose-response curve (135F2)	area under the viability dose-response curve (8F1)	area under the viability dose-response curve (13E)	area under the viability dose-response curve (22E)	area under the viability dose-response curve (17E)
COc1cc(OC)cc(N(CCNC(C)C)c2ccc3ncc(-c4cnn(C)c4)nc3c2)c1 [Erdafitinib]	467	227	323	499	448	498	496	489	341	345	231
Cc1ccc(NC(=O)c2ccc(CN3CCN(C)CC3)cc2)cc1Nc1nc(-c2cccnc2)cs1 [Masitinib]	> 500	483	489	> 500	497	484	473	> 500	489	474	462
COc1cc(N2CCC(N3CCN(C)CC3)CC2)ccc1Nc1ncc(Cl)c(Nc2ccccc2P(C)(C)=O)n1 [Brigatinib]	420	349	388	426	399	427	392	454	402	381	398
CC(C)C[C@H](NC(=O)[C@H](Cc1ccccc1)NC(=O)c1cnccn1)B(O)O [Bortezomib]	200	133	182	170	189	210	191	207	179	193	173
C=CCNC1=C2C[C@@H](C)C[C@H](OC)[C@H](O)[C@@H](C)/C=C(\C)[C@H](OC(N)=O)[C@@H](OC)/C=C\C=C(/C)C(=O)NC(=CC1=O)C2=O [Tanespimycin]	311	382	245	373	220	327	267	356	384	346	337
Cc1ccc(C(=O)Nc2ccc(Oc3cc4cnn(C)c4cc3-c3cn[nH]c3)c(F)c2)c(=O)n1-c1ccc(F)cc1 [Merestinib]	> 500	452	466	> 500	432	> 500	487	484	463	464	486
CCN(c1cc(-c2ccc(CN3CCOCC3)cc2)cc(C(=O)NCc2c(C)cc(C)[nH]c2=O)c1C)C1CCOCC1 [Tazemetostat]	475	461	360	482	448	473	473	> 500	479	481	415
CN1CCN(c2ccc(C(=O)Nc3n[nH]c4ccc(Cc5cc(F)cc(F)c5)cc34)c(NC3CCOCC3)c2)CC1 [Entrectinib]	484	424	418	448	399	454	438	460	418	429	404
CCOC(=O)CCNc1cc(N2CCc3ccccc3CC2)nc(-c2ccccn2)n1 [GSK J4]	> 500	445	438	483	493	492	468	494	449	476	452
CC1=C(/C=C/C(C)=C/C=C/C(C)=C/C(=O)Nc2ccc(O)cc2)C(C)(C)CCC1 [Fenretinide]	484	386	469	443	418	430	430	470	446	418	426
CNc1nc(-c2nc3ccc(N4CCN(C)CC4)cc3n2Cc2ccccc2)cn2c(C)nnc12	479	321	260	460	328	492	309	> 500	411	415	433
CCn1cc(-c2cccc(C(F)(F)F)c2)c2sc(C(=N)NC3CCS(=O)(=O)CC3)cc2c1=O [I-BRD9]	> 500	376	435	490	> 500	478	471	459	470	493	461
CC(=O)c1c(C)c2cnc(Nc3ccc(N4CCNCC4)cn3)nc2n(C2CCCC2)c1=O [Palbociclib]	470	382	337	> 500	398	460	431	499	467	460	373
C#Cc1cccc(Nc2ncnc3cc(OCCOC)c(OCCOC)cc23)c1 [Erlotinib]	423	476	360	448	311	415	469	463	488	485	448
C=CCn1c(=O)c2cnc(Nc3ccc(N4CCN(C)CC4)cc3)nc2n1-c1cccc(C(C)(C)O)n1 [Adavosertib]	386	335	354	383	328	361	353	438	404	423	336
COc1cc(Nc2c(C#N)cnc3cc(OCCCN4CCN(C)CC4)c(OC)cc23)c(Cl)cc1Cl [Bosutinib]	422	435	397	469	429	433	459	450	447	471	429
CC(C)c1c(-c2ccccc2)nc2c(C#N)c[nH]n2c1=O [CPI-455]	> 500	> 500	> 500	498	469	> 500	> 500	> 500	> 500	> 500	> 500

SMILES	area under the viability dose-response curve (27F1)	area under the viability dose-response curve (3E)	area under the viability dose-response curve (13F2)	area under the viability dose-response curve (17F1)	area under the viability dose-response curve (10F2)	area under the viability dose-response curve (96F1)	area under the viability dose-response curve (135F2)	area under the viability dose-response curve (8F1)	area under the viability dose-response curve (13E)	area under the viability dose-response curve (22E)	area under the viability dose-response curve (17E)
COc1cc(CCc2cc(NC(=O)c3ccc(N4CC(C)NC(C)C4)cc3)n[nH]2)cc(OC)c1 (centres undefined) [AZD4547]	> 500	308	376	480	476	475	471	> 500	375	370	338
O=C(CCCCCCC(=O)Nc1ccccc1)NO [Vorinostat]	440	379	400	437	404	435	408	452	428	421	406
Cc1cn(-c2cc(NC(=O)c3ccc(C)c(Nc4nccc(-c5cccnc5)n4)c3)cc(C(F)(F)F)c2)cn1 [Nilotinib]	> 500	489	471	496	> 500	495	476	486	493	478	456
Cn1nccc1Nc1nccc(-c2ccn([C@H](CO)c3ccc(Cl)c(F)c3)c(=O)c2)n1 [Ravoxertinib]	> 500	494	354	> 500	331	483	380	> 500	470	468	475
O=C(/C=C/c1cccc(S(=O)(=O)Nc2ccccc2)c1)NO [Belinostat]	418	355	359	437	365	409	386	434	401	425	367
CN(Cc1cnc2nc(N)nc(N)c2n1)c1ccc(C(=O)N[C@@H](CCC(=O)O)C(=O)O)cc1 [Methotrexate]	366	483	274	334	429	345	294	382	381	452	451
CN1CC[C@@H](NC(=O)Nc2ccc(C#N)cc2)C[C@@H]1c1nc2ccccc2[nH]1 [Glasdegib]	> 500	> 500	> 500	497	448	> 500	> 500	> 500	> 500	> 500	> 500
Cc1cc(-c2ncc(CC(=O)Nc3ccc(-c4cnccn4)cn3)cc2C)ccn1 [LGK974]	492	> 500	477	497	474	491	499	489	497	494	475
CC(C)NC[C@@H](C(=O)N1CCN(c2ncnc3c2[C@H](C)C[C@H]3O)CC1)c1ccc(Cl)cc1 [Ipatasertib]	483	436	442	495	433	445	496	434	456	433	437
C[C@]12CCCN1CC1=NNC(=O)c3cc(F)cc4[nH]c2c1c34 [Pamiparib]	487	459	443	> 500	439	494	478	479	481	473	> 500
Nc1cc(F)ccc1NC(=O)c1ccc(CNC(=O)/C=C/c2cccnc2)cc1 [Epidaza]	482	466	426	467	395	492	444	> 500	448	461	437
CCn1c(-c2nonc2N)nc2cnc(Oc3cccc(NC(=O)c4ccc(OCCN5CCOCC5)cc4)c3)cc21	481	493	392	451	348	469	441	467	478	468	450
O=C(NC1CCNCC1)c1n[nH]cc1NC(=O)c1c(Cl)cccc1Cl [AT7519]	456	332	361	381	378	387	396	381	348	371	406
CO[C@H]1C[C@@H]2CC[C@@H](C)[C@@](O)(O2)C(=O)C(=O)N2CCCC[C@H]2C(=O)O[C@H]([C@H](C)C[C@@H]2CC[C@@H](OC(=O)C(C)(CO)CO)[C@H](OC)C2)CC(=O)[C@H](C)/C=C(\C)[C@@H](O)[C@@H](OC)C(=O)[C@H](C)C[C@H](C)/C=C/C=C/C=C/1C [Temsirolimus]	475	280	342	471	339	496	469	493	373	406	341
CC[C@H](Nc1ncnc2[nH]cnc12)c1nc2cccc(F)c2c(=O)n1-c1ccccc1 [Idelalisib]	492	491	496	495	492	> 500	> 500	484	497	492	488
CC[C@H](NC(=O)[C@H](C)NC)C(=O)N1C[C@@H](O)C[C@H]1Cc1c(-c2[nH]c3cc(F)ccc3c2C[C@@H]2C[C@H](O)CN2C(=O)[C@H](CC)NC(=O)[C@H](C)NC)[nH]c2cc(F)ccc12 [Birinapant]	> 500	237	483	467	425	480	483	468	473	204	434
CCn1cc(-c2ccnc3[nH]c(-c4cccc(CN(C)C)c4)cc23)c(-c2ccc(NC(=O)N(C)C)cc2)n1	387	322	298	477	307	413	370	458	382	408	297
